For one compound, IC50 results are on record in article PMC3758588, “Development of an Ultrasensitive Immunoassay for Detecting Tartrazine” (Sensors (Basel, Switzerland), 2013).

SMILES strings stand for the structures.

The experiment deals with monoclonal antibody 1F3 (mAb 1F3). Briefly: indirect competitive ELISA against Tar-OVA coating antigen. The format is binding, Mus musculus. A general note: In an ELISA, binding on a coated surface is turned into a signal by an enzyme label.

In turn, `O=C(O)c1nn(-c2ccc(S(=O)(=O)O)cc2)c(O)c1/N=N/c1ccc(S(=O)(=O)O)cc1` [Tartrazine, trisodium 5-hydroxy-1-(4-sulfonatophenyl)-4-(4-sulfonatophenylazo)-H-pyrazol-3-carboxylate] had an IC50 of 0.105 ng/mL.

One may read the IC50 as the midpoint of a concentration-inhibition curve. The low end stands for higher potency, the high end for lower potency.
